Results: ChEMBL document CHEMBL3885881, “DrugMatrix”

Species on record: Rattus norvegicus
Experiment: DrugMatrix - Regimen: Daily Repeat
Type: toxicity, organism-based, Sprague-Dawley
Set-up: regimen Daily Repeat, gender Male, age 6-8 weeks
Details: in vivo, po, route oral GAVAGE, vehicle 100 % WATER; for ABSOLUTE BASOPHIL / ABSOLUTE EOSINOPHIL / ABSOLUTE LYMPHOCYTE / ABSOLUTE MONOCYTE / ABSOLUTE SEGMENTED NEUTROPHIL / BASOPHIL / EOSINOPHIL / ERYTHROCYTE COUNT / HEMATOCRIT / HEMOGLOBIN / LEUKOCYTE COUNT / LYMPHOCYTE / MEAN CORPUSCULAR HEMOGLOBIN / MEAN CORPUSCULAR HEMOGLOBIN CONCENTRATION / MEAN CORPUSCULAR VOLUME / MONOCYTE / NEUTROPHIL / NUCLEATED RED BLOOD CELLS / PLATELET COUNT: tissue Blood; for ALANINE AMINOTRANSFERASE / ALBUMIN / ALKALINE PHOSPHATASE / ASPARTATE AMINOTRANSFERASE / BLOOD UREA NITROGEN / CARBON DIOXIDE / CHLORIDE / CHOLESTEROL / CREATINE PHOSPHOKINASE / CREATININE / GLUCOSE / LACTATE DEHYDROGENASE / LIPASE / PHOSPHORUS / POTASSIUM / SODIUM / TOTAL BILIRUBIN / TOTAL PROTEIN / URIC ACID: tissue Plasma
[1] = 14 mg/kg, 120 h, dose level Low, time 5 day
[2] = 1000 mg/kg, 72 h, dose level High, time 3 day
[3] = 1000 mg/kg, 120 h, dose level High, time 5 day

Structure (SMILES): C[C@H]1c2cccc(O)c2C(=O)C2=C(O)[C@]3(O)C(=O)C(C(N)=O)=C(O)[C@@H](N(C)C)[C@@H]3[C@@H](O)[C@@H]21.O [DOXYCYCLINE]
- ABSOLUTE BASOPHIL [1]: 0 CELLS/uL
- ABSOLUTE EOSINOPHIL [1]: 22.33 CELLS/uL
- ABSOLUTE LYMPHOCYTE [1]: 6462.67 CELLS/uL
- ABSOLUTE MONOCYTE [1]: 105.33 CELLS/uL
- ABSOLUTE SEGMENTED NEUTROPHIL [1]: 909.67 CELLS/uL
- BASOPHIL [1]: 0%
- EOSINOPHIL [1]: 0.33%
- ERYTHROCYTE COUNT [1]: 5.81 x10E6/uL
- HEMATOCRIT [1]: 36.47%
- HEMOGLOBIN [1]: 13.87 G/DL
- LEUKOCYTE COUNT [1]: 7.5 x10E3/uL
- LYMPHOCYTE [1]: 86.67%
- MEAN CORPUSCULAR HEMOGLOBIN [1]: 23.9 pg
- MEAN CORPUSCULAR HEMOGLOBIN CONCENTRATION [1]: 38.1 G/DL
- MEAN CORPUSCULAR VOLUME [1]: 62.77 fL
- MONOCYTE [1]: 1.33%
- NEUTROPHIL [1]: 11.67%
- NUCLEATED RED BLOOD CELLS [1]: 0.33 /100WBC
- PLATELET COUNT [1]: 1055 x10E3/uL
- ALANINE AMINOTRANSFERASE [1]: 56.67 u/L
- ALBUMIN [1]: 4.23 G/DL
- ALKALINE PHOSPHATASE [1]: 411.33 u/L
- ASPARTATE AMINOTRANSFERASE [1]: 92 u/L
- BLOOD UREA NITROGEN [1]: 17.67 mg/dL
- CARBON DIOXIDE [1]: 32 mmol/L
- CHLORIDE [1]: 101.67 MEQ/L
- CHOLESTEROL [1]: 67 mg/dL
- CREATINE PHOSPHOKINASE [1]: 551.33 u/L
- CREATININE [1]: 0.19 mg/dL
- GLUCOSE [1]: 154.67 mg/dL
- LACTATE DEHYDROGENASE [1]: 117 u/L
- LIPASE [1]: 11 u/L
- PHOSPHORUS [1]: 11.33 mg/dL
- POTASSIUM [1]: 6.02 MEQ/L
- SODIUM [1]: 147 MEQ/L
- TOTAL BILIRUBIN [1]: 0.1 mg/dL
- TOTAL PROTEIN [1]: 6.37 G/DL
- URIC ACID [1]: 0.8 mg/dL
- ABSOLUTE BASOPHIL [2]: 0 CELLS/uL
- ABSOLUTE EOSINOPHIL [2]: 0 CELLS/uL
- ABSOLUTE LYMPHOCYTE [2]: 7696.67 CELLS/uL
- ABSOLUTE MONOCYTE [2]: 0 CELLS/uL
- ABSOLUTE SEGMENTED NEUTROPHIL [2]: 736.67 CELLS/uL
- BASOPHIL [2]: 0%
- EOSINOPHIL [2]: 0%
- ERYTHROCYTE COUNT [2]: 5.23 x10E6/uL
- HEMATOCRIT [2]: 32.1%
- HEMOGLOBIN [2]: 12.57 G/DL
- LEUKOCYTE COUNT [2]: 8.43 x10E3/uL
- LYMPHOCYTE [2]: 92.33%
- MEAN CORPUSCULAR HEMOGLOBIN [2]: 24.07 pg
- MEAN CORPUSCULAR HEMOGLOBIN CONCENTRATION [2]: 39.17 G/DL
- MEAN CORPUSCULAR VOLUME [2]: 61.4 fL
- MONOCYTE [2]: 0%
- NEUTROPHIL [2]: 7.67%
- NUCLEATED RED BLOOD CELLS [2]: 0 /100WBC
- PLATELET COUNT [2]: 1333.67 x10E3/uL
- ALANINE AMINOTRANSFERASE [2]: 59.33 u/L
- ALBUMIN [2]: 4.03 G/DL
- ALKALINE PHOSPHATASE [2]: 294.67 u/L
- ASPARTATE AMINOTRANSFERASE [2]: 81 u/L
- BLOOD UREA NITROGEN [2]: 14.67 mg/dL
- CARBON DIOXIDE [2]: 32.33 mmol/L
- CHLORIDE [2]: 103 MEQ/L
- CHOLESTEROL [2]: 89 mg/dL
- CREATINE PHOSPHOKINASE [2]: 186 u/L
- CREATININE [2]: 0.18 mg/dL
- GLUCOSE [2]: 146 mg/dL
- LACTATE DEHYDROGENASE [2]: 161.33 u/L
- LIPASE [2]: 12.33 u/L
- PHOSPHORUS [2]: 10.9 mg/dL
- POTASSIUM [2]: 5.89 MEQ/L
- SODIUM [2]: 146.35 MEQ/L
- TOTAL BILIRUBIN [2]: 0.0667 mg/dL
- TOTAL PROTEIN [2]: 5.97 G/DL
- URIC ACID [2]: 1.2 mg/dL
- ABSOLUTE BASOPHIL [3]: 0 CELLS/uL
- ABSOLUTE EOSINOPHIL [3]: 19.67 CELLS/uL
- ABSOLUTE LYMPHOCYTE [3]: 6922.33 CELLS/uL
- ABSOLUTE MONOCYTE [3]: 67.67 CELLS/uL
- ABSOLUTE SEGMENTED NEUTROPHIL [3]: 1023.67 CELLS/uL
- BASOPHIL [3]: 0%
- EOSINOPHIL [3]: 0.33%
- ERYTHROCYTE COUNT [3]: 5.99 x10E6/uL
- HEMATOCRIT [3]: 36.73%
- HEMOGLOBIN [3]: 14.13 G/DL
- LEUKOCYTE COUNT [3]: 8.03 x10E3/uL
- LYMPHOCYTE [3]: 85.67%
- MEAN CORPUSCULAR HEMOGLOBIN [3]: 23.63 pg
- MEAN CORPUSCULAR HEMOGLOBIN CONCENTRATION [3]: 38.53 G/DL
- MEAN CORPUSCULAR VOLUME [3]: 61.37 fL
- MONOCYTE [3]: 1%
- NEUTROPHIL [3]: 13%
- NUCLEATED RED BLOOD CELLS [3]: 0 /100WBC
- PLATELET COUNT [3]: 1104.67 x10E3/uL
- ALANINE AMINOTRANSFERASE [3]: 56 u/L
- ALBUMIN [3]: 3.97 G/DL
- ALKALINE PHOSPHATASE [3]: 312 u/L
- ASPARTATE AMINOTRANSFERASE [3]: 84.33 u/L
- BLOOD UREA NITROGEN [3]: 21 mg/dL
- CARBON DIOXIDE [3]: 32 mmol/L
- CHLORIDE [3]: 99.67 MEQ/L
- CHOLESTEROL [3]: 87.33 mg/dL
- CREATINE PHOSPHOKINASE [3]: 239.67 u/L
- CREATININE [3]: 0.26 mg/dL
- GLUCOSE [3]: 138 mg/dL
- LACTATE DEHYDROGENASE [3]: 100.67 u/L
- LIPASE [3]: 11.33 u/L
- PHOSPHORUS [3]: 10.53 mg/dL
- POTASSIUM [3]: 6.12 MEQ/L
- SODIUM [3]: 146.5 MEQ/L
- TOTAL BILIRUBIN [3]: 0.13 mg/dL
- TOTAL PROTEIN [3]: 5.87 G/DL
- URIC ACID [3]: 0.97 mg/dL
